In US10544147B2, “Purine inhibitors of human phosphatidylinositol 3-kinase delta” (MERCK SHARP & DOHME CORP., priority 2016, dated 2020):

Experiments:
[1] = target: PI3Kalpha (Homo sapiens (Human), UniProt P42336); assay: HTRF PI3K biochemical assay, alpha isoform (selectivity versus delta); conditions: ratio PI3K-alpha IC50 value/PI3K-delta IC50 value
[2] = target: PI3Kdelta (Homo sapiens (Human), UniProt O00329); assay: HTRF PI3K biochemical assay, delta isoform; conditions: 0.3 nM enzyme, 100 uM ATP, 50 uM PIP2; form screened (neutral or TFA salt)
Chain of PI3Kdelta (O00329 whole entry, canonical isoform): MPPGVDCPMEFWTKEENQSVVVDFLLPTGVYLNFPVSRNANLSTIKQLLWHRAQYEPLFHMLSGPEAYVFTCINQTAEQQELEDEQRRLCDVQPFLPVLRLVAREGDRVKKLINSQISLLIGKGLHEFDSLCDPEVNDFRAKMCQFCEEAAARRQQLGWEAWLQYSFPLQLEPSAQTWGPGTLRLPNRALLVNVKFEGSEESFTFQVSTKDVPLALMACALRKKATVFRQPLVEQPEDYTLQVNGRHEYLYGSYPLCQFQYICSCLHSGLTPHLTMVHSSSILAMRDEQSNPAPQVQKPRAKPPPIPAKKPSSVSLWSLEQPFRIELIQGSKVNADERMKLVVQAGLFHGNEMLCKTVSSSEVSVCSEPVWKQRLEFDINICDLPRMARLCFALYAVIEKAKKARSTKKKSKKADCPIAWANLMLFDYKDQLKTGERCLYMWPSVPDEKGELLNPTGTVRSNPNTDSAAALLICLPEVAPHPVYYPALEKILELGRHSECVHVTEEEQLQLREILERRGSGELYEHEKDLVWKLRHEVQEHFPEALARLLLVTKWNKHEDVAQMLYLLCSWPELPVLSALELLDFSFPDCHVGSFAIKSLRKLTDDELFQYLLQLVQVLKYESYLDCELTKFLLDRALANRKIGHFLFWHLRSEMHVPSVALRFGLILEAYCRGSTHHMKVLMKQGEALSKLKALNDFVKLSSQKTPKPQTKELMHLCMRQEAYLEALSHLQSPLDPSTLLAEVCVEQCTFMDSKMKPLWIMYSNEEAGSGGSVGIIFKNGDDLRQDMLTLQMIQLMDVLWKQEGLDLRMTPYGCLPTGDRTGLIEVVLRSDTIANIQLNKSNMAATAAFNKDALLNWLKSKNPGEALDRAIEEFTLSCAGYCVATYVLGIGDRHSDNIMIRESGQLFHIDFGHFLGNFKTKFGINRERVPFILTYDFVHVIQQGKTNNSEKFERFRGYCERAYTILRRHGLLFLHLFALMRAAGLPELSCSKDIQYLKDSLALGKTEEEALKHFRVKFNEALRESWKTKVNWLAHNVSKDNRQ
Chain of PI3Kdelta (P27986 whole entry partner, canonical isoform): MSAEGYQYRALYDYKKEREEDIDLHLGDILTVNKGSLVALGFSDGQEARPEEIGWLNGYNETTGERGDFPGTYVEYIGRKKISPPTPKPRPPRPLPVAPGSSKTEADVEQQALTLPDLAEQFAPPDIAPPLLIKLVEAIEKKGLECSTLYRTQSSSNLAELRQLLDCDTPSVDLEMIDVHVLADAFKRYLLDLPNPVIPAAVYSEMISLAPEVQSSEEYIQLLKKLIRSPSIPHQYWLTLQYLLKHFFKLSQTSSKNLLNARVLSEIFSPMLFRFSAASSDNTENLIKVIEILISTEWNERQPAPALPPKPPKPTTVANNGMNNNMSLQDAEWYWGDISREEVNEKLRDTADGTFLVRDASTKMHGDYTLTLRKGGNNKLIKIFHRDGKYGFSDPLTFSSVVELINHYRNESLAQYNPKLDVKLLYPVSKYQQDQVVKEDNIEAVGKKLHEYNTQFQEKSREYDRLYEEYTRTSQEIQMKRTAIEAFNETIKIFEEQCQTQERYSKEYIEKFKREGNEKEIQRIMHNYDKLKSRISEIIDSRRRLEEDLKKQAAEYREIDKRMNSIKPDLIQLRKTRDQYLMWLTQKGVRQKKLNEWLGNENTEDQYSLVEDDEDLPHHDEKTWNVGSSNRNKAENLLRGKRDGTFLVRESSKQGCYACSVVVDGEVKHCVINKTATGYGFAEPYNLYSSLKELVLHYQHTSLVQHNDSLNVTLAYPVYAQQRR

Chain of PI3Kalpha (P42336 whole entry, canonical isoform): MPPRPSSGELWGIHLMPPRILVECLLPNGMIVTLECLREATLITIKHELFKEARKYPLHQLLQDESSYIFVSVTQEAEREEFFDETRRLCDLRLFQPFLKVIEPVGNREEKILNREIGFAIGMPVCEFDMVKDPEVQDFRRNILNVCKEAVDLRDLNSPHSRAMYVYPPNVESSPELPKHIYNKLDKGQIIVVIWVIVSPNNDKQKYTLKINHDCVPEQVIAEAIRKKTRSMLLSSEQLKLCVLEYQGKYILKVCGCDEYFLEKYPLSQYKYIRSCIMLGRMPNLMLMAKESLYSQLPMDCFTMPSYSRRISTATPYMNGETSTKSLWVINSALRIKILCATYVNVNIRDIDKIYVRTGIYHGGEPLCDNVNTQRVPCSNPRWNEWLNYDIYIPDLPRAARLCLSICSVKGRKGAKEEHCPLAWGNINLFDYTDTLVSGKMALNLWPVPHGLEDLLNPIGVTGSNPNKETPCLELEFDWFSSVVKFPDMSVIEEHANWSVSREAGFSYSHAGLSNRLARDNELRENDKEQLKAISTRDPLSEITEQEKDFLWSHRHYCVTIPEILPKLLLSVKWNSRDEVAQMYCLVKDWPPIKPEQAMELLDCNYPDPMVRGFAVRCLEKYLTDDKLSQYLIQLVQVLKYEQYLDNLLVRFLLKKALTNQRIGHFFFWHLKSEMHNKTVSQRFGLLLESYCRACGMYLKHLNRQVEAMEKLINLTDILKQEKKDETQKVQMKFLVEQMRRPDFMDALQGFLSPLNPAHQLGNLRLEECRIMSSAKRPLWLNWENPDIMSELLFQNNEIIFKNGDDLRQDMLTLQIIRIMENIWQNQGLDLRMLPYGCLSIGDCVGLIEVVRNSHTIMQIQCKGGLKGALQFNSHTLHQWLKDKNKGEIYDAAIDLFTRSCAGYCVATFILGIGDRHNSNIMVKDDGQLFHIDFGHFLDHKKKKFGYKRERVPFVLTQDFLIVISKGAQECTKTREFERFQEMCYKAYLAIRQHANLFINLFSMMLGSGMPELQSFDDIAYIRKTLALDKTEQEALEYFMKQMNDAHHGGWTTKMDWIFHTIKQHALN
Chain of PI3Kalpha (P27986 whole entry partner, canonical isoform): as the sequence (P27986 whole entry partner, canonical isoform) above

Row | Relative Selectivity versus PI3Kalpha [1] | IC50 [2] [nM] | Structure (SMILES)
1 | >10 | 63 | CCn1c(-c2cnc(C)nc2)nc2c(-c3ccc4c(c3)C3(CCN(C(=O)C5CC5)C3)C(=O)N4)ncnc21 (single isomer, unassigned) [Compound 3-5, (R or S)-1′-(cyclopropanecarbonyl)-5-(9-ethyl-8-(2-methylpyrimidin-5-yl)-9H-purin-6-yl)spiro[indoline-3,3′-pyrrolidin]-2-one]
2 | >10 | 15 | CCN1CCCC12C(=O)Nc1ccc(-c3ncnc4c3nc(-c3cnc(C)nc3)n4C)cc12 (single isomer, unassigned) [Compound 3-29, (R or S)-1′-ethyl-5-(9-methyl-8-(2-methylpyrimidin-5-yl)-9H-purin-6-yl)spiro[indoline-3,2′-pyrrolidin]-2-one]
3 | >10 | 42 | CCn1c(-c2cnc(C)nc2)nc2c(-c3ccc4oc(=O)n(C(C)C5CC5)c4c3)ncnc21 (single isomer, unassigned) [Compound 5-5, (R or S)-3-(1-cyclopropylethyl)-5-[9-ethyl-8-(2-methylpyrimidin-5-yl)-9H-purin-6-yl]-1,3-benzoxazol-2(3H)-one]
4 | >10 | 7 | CCn1c(-c2cnc(C)nc2)nc2c(-c3ccc4c(c3)C(C)(CC(C)C)NC4=O)ncnc21 (single isomer, unassigned) [Compound 4-7, (R or S)-5-[9-ethyl-8-(2-methylpyrimidin-5-yl)-9H-purin-6-yl]-3-methyl-3-(2-methylpropyl)-2,3-dihydro-1H-isoindol-1-one]
5 | >10 | 24 | CCn1c(-c2cnc(C)nc2)nc2c(-c3ccc4[nH]c(=O)n(C(C)C5CC5)c4c3)ncnc21 (single isomer, unassigned) [Compound 5-8, (R or S)-1-(1-cyclopropylethyl)-6-[9-ethyl-8-(2-methylpyrimidin-5-yl)-9H-purin-6-yl]-1,3-dihydro-2H-benzimidazol-2-one]

The remaining lines, values behind:

Row | Structure (SMILES) | Relative Selectivity versus PI3Kalpha [1] | IC50 [2] [nM]
6 | CCn1c(-c2cnc(C)nc2)nc2c(-c3ccc4c(c3)C(C)(N3CCn5nccc5C3)C(=O)N4)ncnc21 (racemic) [Compound 2-24, (R and S)-3-(6,7-dihydropyrazolo[1,5-a]pyrazin-5(4H)-yl)-5-[9-ethyl-8-(2-methylpyrimidin-5-yl)-9H-purin-6-yl]-3-methyl-1,3-dihydro-2H-indol-2-one] | >10 | 67
7 | Cc1ncc(-c2nc3c(-c4ccc5c(c4)C(C)(NCC(C)(C)F)C(=O)N5)ncnc3n2C)cn1 (single isomer, unassigned) [Compound 2-67, (R or S)-3-((2-fluoro-2-methylpropyl)amino)-3-methyl-5-(9-methyl-8-(2-methylpyrimidin-5-yl)-9H-purin-6-yl)indolin-2-one] | >10 | 344
8 | CCn1c(-c2cnc(C)nc2)nc2c(-c3ccc4c(c3)C(C)(N3CCC5OCCC53)C(=O)N4)ncnc21 (racemic) [Compound 2-10, (R and S)-5-[9-ethyl-8-(2-methylpyrimidin-5-yl)-9H-purin-6-yl]-3-(hexahydro-4H-furo[3,2-b]pyrrol-4-yl)-3-methyl-1,3-dihydro-2H-indol-2-one] | >10 | 14
9 | CCn1c(-c2cnc(C)nc2)nc2c(-c3ccc4c(c3)C(C)(CC(C)(C)O)C(=O)N4)ncnc21 (single isomer, unassigned) [Compound 1-41, 5-(9-Ethyl-8-(2-methylpyrimidin-5-yl)-9H-purin-6-yl)-3-(2-hydroxy-2-methylpropyl)-3-methylindolin-2-one] | >10 | 23
10 | CCn1c(-c2cnc(C)nc2)nc2c(-c3ccc4c(c3)C(C)(N3CC(C)(C#N)C3)C(=O)N4)ncnc21 (single isomer, unassigned) [Compound 2-6, (R or S)-1-{5-[9-ethyl-8-(2-methylpyrimidin-5-yl)-9H-purin-6-yl]-3-methyl-2-oxo-2,3-dihydro-1H-indol-3-yl}-3-methylazetidine-3-carbonitrile] | >10 | 3
11 | CCn1c(-c2cnc(C)nc2)nc2c(-c3ccc4c(c3)C(C)(NC(C)C)C(=O)N4)ncnc21 (single isomer, unassigned) [Compound 2-32, (R or S)-5-[9-ethyl-8-(2-methylpyrimidin-5-yl)-9H-purin-6-yl]-3-methyl-3-[(1-methylethyl)amino]-1,3-dihydro-2H-indol-2-one] | >10 | 27
12 | CCn1c(-c2cnc(C)nc2)nc2c(-c3cnc4c(c3)C(C)(N3CC(C)(C#N)C3)C(=O)N4)ncnc21 (single isomer, unassigned) [Compound 2-53, (S or R)-1-(5-(9-ethyl-8-(2-methylpyrimidin-5-yl)-9H-purin-6-yl)-3-methyl-2-oxo-2,3-dihydro-1H-pyrrolo[2,3-b]pyridin-3-yl)-3-methylazetidine-3-carbonitrile] | >10 | 4
13 | CCn1c(-c2cnc(C)nc2)nc2c(-c3ccc4c(c3)C(C)(Nc3ccncc3)C(=O)N4)ncnc21 (racemic) [Compound 2-9, (R and S)-5-[9-ethyl-8-(2-methylpyrimidin-5-yl)-9H-purin-6-yl]-3-methyl-3-(pyridin-4-ylamino)-1,3-dihydro-2H-indol-2-one] | >10 | 144
14 | CCn1c(-c2cnc(C)nc2)nc2c(-c3ccc4c(c3)C(C)(NCC(C)(C)C#N)C(=O)N4)ncnc21 (single isomer, unassigned) [Compound 2-40, (R or S)-3-((5-(9-ethyl-8-(2-methylpyrimidin-5-yl)-9H-purin-6-yl)-3-methyl-2-oxoindolin-3-yl)amino)-2,2-dimethylpropanenitrile] | >10 | 179
15 | CCn1c(-c2cnc(C)nc2)nc2c(-c3ccc4c(c3)C(C)(NCC3(F)COC3)C(=O)N4)ncnc21 (single isomer, unassigned) [Compound 2-72, (R or S)-5-(9-ethyl-8-(2-methylpyrimidin-5-yl)-9H-purin-6-yl)-3-(((3-fluorooxetan-3-yl)methyl)amino)-3-methylindolin-2-one] | >10 | 3
